In BindingDB's records for patent US20250011272 (Shanghaiinstitute of Materia Medica, 2025):

Target: T1, ATP-citrate synthase (Homo sapiens, UniProt P53396)
T1 sequence (P53396 whole entry): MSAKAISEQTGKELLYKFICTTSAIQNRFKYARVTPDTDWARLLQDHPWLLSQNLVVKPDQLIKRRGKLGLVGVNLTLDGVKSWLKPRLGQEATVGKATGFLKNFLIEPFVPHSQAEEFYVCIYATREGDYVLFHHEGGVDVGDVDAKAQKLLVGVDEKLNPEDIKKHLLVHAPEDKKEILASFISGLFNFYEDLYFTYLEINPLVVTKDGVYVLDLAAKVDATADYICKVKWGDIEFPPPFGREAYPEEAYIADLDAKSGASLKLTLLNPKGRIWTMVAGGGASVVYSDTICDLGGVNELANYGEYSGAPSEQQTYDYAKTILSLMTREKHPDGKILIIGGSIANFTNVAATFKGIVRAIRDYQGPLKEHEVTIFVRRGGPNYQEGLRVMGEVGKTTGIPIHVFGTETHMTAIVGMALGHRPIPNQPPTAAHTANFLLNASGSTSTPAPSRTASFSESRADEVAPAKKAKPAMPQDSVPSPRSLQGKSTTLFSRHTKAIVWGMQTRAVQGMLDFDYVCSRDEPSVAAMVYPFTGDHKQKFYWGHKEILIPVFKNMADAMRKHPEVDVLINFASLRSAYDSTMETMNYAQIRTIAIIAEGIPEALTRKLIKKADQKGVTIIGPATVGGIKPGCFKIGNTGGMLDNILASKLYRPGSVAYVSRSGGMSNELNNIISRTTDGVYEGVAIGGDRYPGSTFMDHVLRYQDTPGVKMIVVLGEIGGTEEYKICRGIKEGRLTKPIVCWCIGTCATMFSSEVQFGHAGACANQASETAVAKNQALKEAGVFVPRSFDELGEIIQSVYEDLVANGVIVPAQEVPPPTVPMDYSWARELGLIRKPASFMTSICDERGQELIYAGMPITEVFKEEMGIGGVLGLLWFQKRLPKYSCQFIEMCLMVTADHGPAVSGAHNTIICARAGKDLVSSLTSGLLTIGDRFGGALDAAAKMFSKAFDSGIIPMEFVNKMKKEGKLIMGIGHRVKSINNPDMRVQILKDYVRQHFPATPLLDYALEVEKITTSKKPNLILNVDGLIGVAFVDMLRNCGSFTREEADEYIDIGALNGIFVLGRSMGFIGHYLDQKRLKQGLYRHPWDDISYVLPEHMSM
Experiment: ACLY Enzyme Activity Assay
Description: Experimental method: ADP Glo luminescence method was used for determination. It reflects the activity of ACLY enzyme by quantitatively detecting the amount of ADP, and the enzymatic reaction catalyzed by ACLY is proportional to the amount of ADP detected by the luminescent signal. Firstly, the compound is diluted with 10% DMSO, and then […] of compound dilution is added to a 5 μl reaction system, so that the final reaction system has a DMSO content of 2%. The enzymatic reaction catalyzed by ACLY was carried out at 37° C. for 30 minutes. 5 μl reaction mixture contained the following components: 40 mM Tris, pH 8.0, 10 mM MgCl2, 5 mM DTT, ATP, CoA, sodium citrate, and ACLY. After the enzymatic reaction was complete, 2.5 μl of ADP Glo reagent was added to each reaction system and incubated at room temperature for 1 hour. Afterwards, 5 μl of kinase detection reagent was added and incubated at room temperature for 30 minutes. The luminous signal was detected using Envision (PerkinElmer, USA).

| Structure (SMILES) | IC50 [µM] |
| --- | --- |
| O=C(O)C1(CCCCCC/C=C/CCCCCCC2(C(=O)O)CCCCC2)CCCCC1 [US20250011272, Example M18] | 16.5 |
| CC(CCCCCC/C=C/CCCCCCC(C)(C(=O)O)c1ccccc1)(C(=O)O)c1ccccc1 (stereo unspecified) [US20250011272, Example M16] | 4 |
| O=C(c1ccc(/C(=C/CCCCCCC2(C(=O)O)C=CCC2)CCCCCCC2(C(=O)O)C=CCC2)cc1)N1CCN(c2ccccc2F)CC1 (stereo unspecified) [US20250011272, Example M40] | 1.69 |
| O=C(O)c1ccc(-c2ccc(N3CCN(C(=O)c4ccc(/C(=C/CCCCCCC5(C(=O)O)C=CCC5)CCCCCCC5(C(=O)O)C=CCC5)cc4)CC3)nc2)cc1 (stereo unspecified) [US20250011272, Example M39] | 1.3 |
| O=C(O)C1(CCCCCC/C=C/CCCCCCC2(C(=O)O)CC=CC2)CC=CC1 [US20250011272, Example M17] | 3.1 |
| O=C(c1ccc(/C(=C/CCCCCCC2(C(=O)O)C=CCC2)CCCCCCC2(C(=O)O)C=CCC2)cc1)N1CCN(c2ccccn2)CC1 (stereo unspecified) [US20250011272, Example M38] | 0.76 |
